The data set deals with HBV. Conditions: ASO.

Values joined by “and” are separate entries in the source; they are usually repeats but may differ in a detail not shown here. Equal values may be shown once. HELM strings list units from the 5' end as sugar, base in round brackets, then linkage (d deoxyribose, r ribose, m 2'-O-methyl, p phosphodiester). Methylation of C is not given here. [moe] = 2'-O-(2-methoxyethyl) (MOE); [cEt] = constrained ethyl (cEt); [sp] = phosphorothioate linkage

With “RNA1{[moe](G)[sp].[moe](G)[sp].[moe](A)[sp].[moe](G)[sp].[moe](T)[sp].[moe](T)[sp].d(C)[sp].d(C)[sp].d(G)[sp].d(C)[sp].d(A)[sp].d(G)[sp].d(T)[sp].d(A)[sp].d(T)[sp].[moe](G)[sp].[moe](G)}$$$$V2.0”, the target mRNA inhibition worked out at 2% (HepG2, 0.0092593 µM); 25% (HepG2, 0.0277778 µM); 55% (HepG2, 0.0833333 µM); 74% (HepG2, 0.25 µM).

For “RNA1{[moe](G)[sp].[moe](G)[sp].[moe](C)[sp].[cEt](A)[sp].[cEt](T)[sp].d(A)[sp].d(G)[sp].d(C)[sp].d(A)[sp].d(G)[sp].d(C)[sp].d(A)[sp].d(G)[sp].[moe](G)[sp].[moe](A)[sp].[moe](T)[sp].[moe](G)}$$$$V2.0”, the target mRNA inhibition is 17% (HepG2, 0.009375 µM); 32% (HepG2, 0.01875 µM); 52% (HepG2, 0.0375 µM); 68% (HepG2, 0.075 µM); 77% (HepG2, 0.15 µM); 81% (HepG2, 0.3 µM).

In the case of “RNA1{[moe](G)[sp].[moe](G)[sp].[moe](C)[sp].[moe](A)[sp].[moe](T)[sp].d(A)[sp].d(G)[sp].d(C)[sp].d(A)[sp].d(G)[sp].d(C)[sp].d(A)[sp].d(G)[sp].d(G)[sp].[moe](A)[sp].[moe](T)}$$$$V2.0”, for the setting “HepG2, 0.07 µM”, the target mRNA inhibition is 55% and 41%. On the same count and under the same terms, then “RNA1{[moe](G)[sp].[moe](G)[sp].[moe](C)[sp].d(A)[sp].d(T)[sp].d(A)[sp].d(G)[sp].d(C)[sp].d(A)[sp].d(G)[sp].d(C)[sp].d(A)[sp].[moe](G)[sp].[moe](G)[sp].[moe](A)[sp].[moe](T)}$$$$V2.0”, with 54% and 57%.

Take “RNA1{[moe](G)[sp].[moe](G)[sp].[moe](T)[sp].[moe](G)[sp].d(A)[sp].d(A)[sp].d(G)[sp].d(C)[sp].d(G)[sp].d(A)[sp].d(A)[sp].d(G)[sp].d(T)[sp].[moe](G)[sp].[moe](C)[sp].[moe](A)[sp].[moe](C)}$$$$V2.0”: the target mRNA inhibition (HepG2, 0.07 µM) is 63% and 59%.

“RNA1{[moe](G)[sp].[moe](G)[sp].[moe](T)[sp].[moe](G)[sp].d(A)[sp].d(A)[sp].d(G)[sp].d(C)[sp].d(G)[sp].d(A)[sp].d(A)[sp].d(G)[sp].d(T)[sp].[moe](G)[sp].[moe](C)[sp].[moe](A)}$$$$V2.0”: for the setting “HepG2, 0.07 µM”, the target mRNA inhibition is 55% and 59%. The same measure, in the same setting: then “RNA1{[moe](G)[sp].[moe](G)[sp].[moe](T)[sp].d(G)[sp].d(A)[sp].d(A)[sp].d(G)[sp].d(C)[sp].d(G)[sp].d(A)[sp].d(A)[sp].d(G)[sp].[moe](T)[sp].[moe](G)[sp].[moe](C)[sp].[moe](A)[sp].[moe](C)}$$$$V2.0”, with 78% and 64%; and “RNA1{[moe](G)[sp].[moe](G)[sp].[moe](T)[sp].d(G)[sp].d(A)[sp].d(A)[sp].d(G)[sp].d(C)[sp].d(G)[sp].d(A)[sp].d(A)[sp].d(G)[sp].[moe](T)[sp].[moe](G)[sp].[moe](C)[sp].[moe](A)}$$$$V2.0”, with 67% and 60%. For “RNA1{[moe](G)[sp].[moe](G)[sp].d(A)[sp].d(G)[sp].d(T)[sp].d(T)[sp].d(C)[sp].d(C)[sp].d(G)[sp].d(C)[sp].d(A)[sp].[moe](G)[sp].[moe](T)[sp].[moe](A)[sp].[moe](T)[sp].[moe](G)[sp].[moe](G)}$$$$V2.0”, under “HepG2, 0.07 µM”, the target mRNA inhibition was 88% and 78%. Same read-out and setting: then “RNA1{[moe](G)[sp].[moe](G)[sp].d(A)[sp].d(G)[sp].d(T)[sp].d(T)[sp].d(C)[sp].d(C)[sp].d(G)[sp].d(C)[sp].d(A)[sp].[moe](G)[sp].[moe](T)[sp].[moe](A)[sp].[moe](T)[sp].[moe](G)}$$$$V2.0”, with 67% and 45%. In the case of “RNA1{[moe](G)[sp].[moe](G)[sp].d(C)[sp].d(A)[sp].d(T)[sp].d(A)[sp].d(G)[sp].d(C)[sp].d(A)[sp].d(G)[sp].d(C)[sp].[moe](A)[sp].[moe](G)[sp].[moe](G)[sp].[moe](A)[sp].[moe](T)}$$$$V2.0”, the target mRNA inhibition (HepG2, 0.07 µM) is 52% and 40%.

Source of the values: the OligoGym collection.
